Assay results: paper PMC6001238, “Iterative Chemical Engineering of Vancomycin Leads to Novel Vancomycin Analogs With a High in Vitro Therapeutic Index” (Frontiers in Microbiology, 2018)
Values after ≈ are worked out from the molar mass of the structure shown.

Experiments:
E. faecalis VSE 1 = assay: MIC, broth microdilution, vancomycin-sensitive E. faecalis (VSE 1); assay type: cell-based, Enterococcus faecalis; settings: for MIC: Enterococcus faecalis VSE 1 (vancomycin-sensitive), read-out: MIC; for MIC-fold improvement vs. vancomycin: VSE 1, ratio of MIC of vancomycin and MIC of analogue
In short: (§1)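 Susceptibility was scored by broth microdilution (CLSI). In one instance each vancomycin analog or control antibiotic was tested in the presence of vancomycin, 10 μM final, and ultrapure water plus non-inoculated broth were included as controls.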

E. faecalis VRE 6 = assay: MIC, broth microdilution, vancomycin-resistant E. faecalis VRE 6 (VanA); assay type: cell-based, Enterococcus faecalis; settings: for MIC: Enterococcus faecalis VRE 6 (vancomycin-resistant), read-out: MIC; for MIC-fold improvement vs. vancomycin: VRE 6, ratio of MIC of vancomycin and MIC of analogue
In short: as §1

E. faecalis VRE 53 = assay: MIC, broth microdilution, vancomycin-resistant E. faecalis VRE 53 (VanA); assay type: cell-based, Enterococcus faecalis; settings: for MIC: Enterococcus faecalis VRE 53 (vancomycin-resistant), read-out: MIC; for MIC-fold improvement vs. vancomycin: VRE 53, ratio of MIC of vancomycin and MIC of analogue
In short: as §1

E. faecalis VRE 29 = assay: MIC, broth microdilution, vancomycin-resistant E. faecalis VRE 29 (VanA); assay type: cell-based, Enterococcus faecalis; settings: for MIC: Enterococcus faecalis VRE 29 (vancomycin-resistant), read-out: MIC
In short: as §1

E. faecalis VRE 37 = assay: MIC, broth microdilution, vancomycin-resistant E. faecalis VRE 37 (VanA); assay type: cell-based, Enterococcus faecalis; settings: for MIC: Enterococcus faecalis VRE 37 (vancomycin-resistant), read-out: MIC; for MIC-fold improvement vs. vancomycin: VRE 37, ratio of MIC of vancomycin and MIC of analogue
In short: as §1

[1] = tested on: Murine leukemia (L1210) cells; assay: Cytostatic activity, L1210 cell proliferation; assay type: cell-based; settings: mean ± SD of three experiments; highest concentration tested 250 µM; 2 days; read-out: Toxicity (IC50) L1210
In short: (§2)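 Suspensions (300,000–500,000 cells/mL) combined with equal volumes of diluted compound; 37°C; L1210 2 d / CEM 3 d / HeLa 4 d; counted by Coulter counter; IC50 vs untreated wells.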

[2] = tested on: human T-lymphocyte (CEM) cells; assay: Cytostatic activity, CEM cell proliferation; assay type: cell-based; settings: mean ± SD of three experiments; highest concentration tested 250 µM; 3 days; read-out: Toxicity (IC50) CEM
In short: as §2

[3] = tested on: human cervix carcinoma (HeLa) cells; assay: Cytostatic activity, HeLa cell proliferation; assay type: cell-based; settings: mean ± SD of three experiments; highest concentration tested 250 µM; 4 days; read-out: Toxicity (IC50) HeLa
In short: as §2

[4] = tested on: L1210, CEM and HeLa cell lines; assay: Cytostatic activity, average or summary over L1210, CEM and HeLa; assay type: cell-based; settings: average of L1210, CEM and HeLa; read-out: Toxicity (IC50) Average
In short: as §2

[5] = tested on: S. aureus VSSA (ATCC 6538); assay: MIC, broth microdilution, vancomycin-sensitive S. aureus (VSSA/MSSA, ATCC 6538); assay type: cell-based, Staphylococcus aureus; settings: for MIC: Staphylococcus aureus VSSA, read-out: MIC; for MIC-fold improvement vs. vancomycin: VSSA, ratio of MIC of vancomycin and MIC of analogue
In short: as §1

S. aureus VISA/HIP5827 = assay: MIC, broth microdilution, vancomycin-intermediate S. aureus VISA HIP5827; assay type: cell-based, Staphylococcus aureus; settings: for MIC: Staphylococcus aureus VISA/HIP5827, read-out: MIC; for MIC-fold improvement vs. vancomycin: VISA/HIP5827, ratio of MIC of vancomycin and MIC of analogue
In short: as §1

S. aureus VRSA = assay: MIC, broth microdilution, vancomycin-resistant S. aureus (VRSA); assay type: cell-based, Staphylococcus aureus; settings: for MIC: Staphylococcus aureus VRSA, read-out: MIC; for MIC-fold improvement vs. vancomycin: VRSA, ratio of MIC of vancomycin and MIC of analogue
In short: as §1

MRSA KS2 = assay: MIC, broth microdilution, MRSA KS2; assay type: cell-based, Staphylococcus aureus; settings: for MIC-fold improvement vs. vancomycin: MRSA KS2, ratio of MIC of vancomycin and MIC of analogue; for MIC: Staphylococcus aureus MRSA KS2, read-out: MIC
In short: as §1

MRSA KS6 = assay: MIC, broth microdilution, MRSA KS6; assay type: cell-based, Staphylococcus aureus; settings: for MIC-fold improvement vs. vancomycin: MRSA KS6, ratio of MIC of vancomycin and MIC of analogue; for MIC: Staphylococcus aureus MRSA KS6, read-out: MIC
In short: as §1

MRSA KS89 = assay: MIC, broth microdilution, MRSA KS89; assay type: cell-based, Staphylococcus aureus; settings: for MIC-fold improvement vs. vancomycin: MRSA KS8, ratio of MIC of vancomycin and MIC of analogue; for MIC: Staphylococcus aureus MRSA KS8, read-out: MIC
In short: as §1

MRSA KS1 = assay: MIC, broth microdilution, MRSA KS1; assay type: cell-based, Staphylococcus aureus; settings: for MIC-fold improvement vs. vancomycin: MRSA KS1, ratio of MIC of vancomycin and MIC of analogue; for MIC: Staphylococcus aureus MRSA KS1, read-out: MIC
In short: as §1

[6] = tested on: Clostridium difficile ATJ ribotype 014/20; assay: MIC, plate drop assay, C. difficile ATJ ribotype 014/20; assay type: cell-based; settings: C. difficile ATJ ribotype 014/20
Procedure: (§3) Bacterial lawns of both C. difficile strains were prepared by adding 0.5 mL overnight culture to 8 mL sloppy BHI agar (0.4% agar) supplemented with 1.5 g/L CaCl2⋅2H2O and 81.2 g/L MgCl2⋅6H2O, and pouring the mixture into Petri plates. A twofold dilution series of the selected vancomycin analogs, vancomycin ([…]) and daptomycin (25 μM) was spotted (10 μL) on the bacterial lawn. Spots were air-dried and the plates were incubated overnight at 37°C in an anaerobic cabinet. Ultrapure water was included as negative control. The assay was performed in triplicate. Inhibition was observed by cleared spots.

[7] = tested on: Clostridium difficile AIU ribotype 027; assay: MIC, plate drop assay, C. difficile AIU ribotype 027; assay type: cell-based; settings: for MIC-fold improvement vs. vancomycin: C. difficile AIU ribotype 027
Procedure: as §3

| SMILES | MIC (E. faecalis VSE 1) [µM] | MIC-fold improvement vs. vancomycin (E. faecalis VSE 1) | MIC (E. faecalis VRE 6) [µM] | MIC-fold improvement vs. vancomycin (E. faecalis VRE 6) | MIC (E. faecalis VRE 53) [µM] | MIC-fold improvement vs. vancomycin (E. faecalis VRE 53) | MIC (E. faecalis VRE 29) [µM] | MIC (E. faecalis VRE 37) [µM] | MIC-fold improvement vs. vancomycin (E. faecalis VRE 37) | IC50 [1] [µM] | IC50 [2] [µM] | IC50 [3] [µM] | IC50 [4] [µM] | MIC [5] [µM] | MIC-fold improvement vs. vancomycin [5] | MIC (S. aureus VISA/HIP5827) [µM] | MIC-fold improvement vs. vancomycin (S. aureus VISA/HIP5827) | MIC (S. aureus VRSA) [µM] | MIC-fold improvement vs. vancomycin (S. aureus VRSA) | MIC-fold improvement vs. vancomycin (MRSA KS2) | further results |
| --- | --- | --- | --- | --- | --- | --- | --- | --- | --- | --- | --- | --- | --- | --- | --- | --- | --- | --- | --- | --- | --- |
| CN[C@H](CC(C)C)C(=O)N[C@H]1C(=O)N[C@@H](CC(N)=O)C(=O)N[C@H]2C(=O)N[C@H]3C(=O)N[C@H](C(=O)N[C@H](C(=O)NCC(=O)Nc4ccc(C)cc4)c4cc(O)cc(O)c4-c4cc3ccc4O)[C@H](O)c3ccc(c(Cl)c3)Oc3cc2cc(c3O[C@@H]2O[C@H](CO)[C@@H](O)[C@H](O)[C@H]2O[C@H]2C[C@](C)(N)[C@H](O)[C@H](C)O2)Oc2ccc(cc2Cl)[C@H]1O [Vanc-4] | 0.39 (≈ 0.622 µg/mL) | 4 | 3.13 (≈ 4.99 µg/mL) | 64 | 6.25 (≈ 9.97 µg/mL) | 64 | 6.25 (≈ 9.97 µg/mL) | 6.25 (≈ 9.97 µg/mL) | 128 | > 250 | > 250 | > 250 | > 250 | 0.39 (≈ 0.622 µg/mL) | 2 | 0.39 (≈ 0.622 µg/mL) | 16 | 6.25 (≈ 9.97 µg/mL) | 16 | 4 | MIC-fold improvement vs. vancomycin (E. faecalis VRE 29; VRE 29, ratio of MIC of vancomycin and MIC of analogue): 64; MIC (MRSA KS2): 0.20 µM (≈ 0.319 µg/mL); MIC-fold improvement vs. vancomycin (MRSA KS6): 2; MIC (MRSA KS6): 0.39 µM (≈ 0.622 µg/mL); MIC-fold improvement vs. vancomycin (MRSA KS89): 2; MIC (MRSA KS89): 0.39 µM (≈ 0.622 µg/mL); MIC-fold improvement vs. vancomycin (MRSA KS1): 2; MIC (MRSA KS1): 0.39 µM (≈ 0.622 µg/mL); MIC-fold improvement vs. vancomycin [6]: 5.6; MIC-fold improvement vs. vancomycin [7]: <1.8; MIC ([7]; C. difficile AIU ribotype 027, plate drop assay): >25 µM |
| CN[C@H](CC(C)C)C(=O)N[C@H]1C(=O)N[C@@H](CC(N)=O)C(=O)N[C@H]2C(=O)N[C@H]3C(=O)N[C@H](C(=O)N[C@H](C(=O)NCC(=O)Nc4ccc(Cl)cc4Cl)c4cc(O)cc(O)c4-c4cc3ccc4O)[C@H](O)c3ccc(c(Cl)c3)Oc3cc2cc(c3O[C@@H]2O[C@H](CO)[C@@H](O)[C@H](O)[C@H]2O[C@H]2C[C@](C)(N)[C@H](O)[C@H](C)O2)Oc2ccc(cc2Cl)[C@H]1O [Vanc-14] | 0.20 (≈ 0.33 µg/mL) | 8 | 1.56 (≈ 2.57 µg/mL) | 128 | 3.13 (≈ 5.17 µg/mL) | 128 | 3.13 (≈ 5.17 µg/mL) | 6.25 (≈ 10.3 µg/mL) | 128 | 153 ± 55 | 114 ± 18 | 148 ± 6 | 138 | 0.20 (≈ 0.33 µg/mL) | 4 | 0.10 (≈ 0.165 µg/mL) | 64 | 3.13 (≈ 5.17 µg/mL) | 32 | 4 | MIC (MRSA KS2): 0.20 µM (≈ 0.33 µg/mL); MIC-fold improvement vs. vancomycin (MRSA KS6): 2; MIC (MRSA KS6): 0.39 µM (≈ 0.644 µg/mL); MIC-fold improvement vs. vancomycin (MRSA KS89): 4; MIC (MRSA KS89): 0.20 µM (≈ 0.33 µg/mL); MIC-fold improvement vs. vancomycin (MRSA KS1): 2; MIC (MRSA KS1): 0.39 µM (≈ 0.644 µg/mL); MIC-fold improvement vs. vancomycin [6]: 22; MIC-fold improvement vs. vancomycin [7]: 29 |
